From ChEMBL document CHEMBL3045533, “Synthesis and cytotoxicity of 1-phenylethanolamine carboxamide derivatives: effects on the cell cycle” (Med Chem Res, 2010)
Values after ≈ are worked out from the molar mass of the structure shown. Active and inactive are the calls of the source. The rule behind the calls is not given here.

Tests used:
[1] = test system: B16; assay: Cytotoxicity against Mus musculus (mouse) B16 cells after 72 hr by MTT assay; format: functional, cell-based; settings: B16, 72 h
[2] = test system: L1210; assay: Cytotoxicity against Mus musculus (mouse) L1210 cells after 72 hr by MTT assay; format: functional, cell-based; settings: L1210, 72 h
[3] = test system: L1210; assay: Induction of apoptosis in Mus musculus (mouse) L1210 cells assessed as viable cells at 500 uM after 3 hr by PI/annexin V-staining based flow cytometric analysis (reference value: 32%); format: functional; settings: L1210, 3 h, read-out: Activity
[4] = test system: L1210; assay: Induction of apoptosis in Mus musculus (mouse) L1210 cells at 500 uM after 3 hr by PI-staining based flow cytometric analysis; format: functional, cell-based
[5] = test system: L1210; assay: Induction of apoptosis in Mus musculus (mouse) L1210 cells assessed as cell death at 500 uM after 3 hr by PI/annexin V-staining based flow cytometric analysis (reference value: 5.3%); format: functional
[6] = test system: L1210; assay: Induction of apoptosis in Mus musculus (mouse) L1210 cells assessed as apoptotic cells at 500 uM after 3 hr by PI/annexin V-staining based flow cytometric analysis (reference value: 30%); format: functional
[7] = test system: U-937; assay: Cytotoxicity against Homo sapiens (human) U937 cells; format: functional, cell-based

Row | SMILES | IC50 [1] [µM] | IC50 [2] [µM] | also measured
1 | COc1cccc(/C=C/C(=O)NCC(O)c2ccccc2)c1 (centres undefined) | > 100 | 64 | 
2 | Nc1ccc(C(O)CNC(=O)/C=C/c2ccc([N+](=O)[O-])cc2)cc1 (centres undefined) | 53 | 64 | 
3 | COc1ccc2[nH]c(C(=O)NCC(O)c3ccccc3)cc2c1 (centres undefined) | 84 | 25 | 
4 | COc1ccc2[nH]c(C(=O)NCC(O)c3ccc(N)cc3)cc2c1 (centres undefined) | 87 | 50 | viability at 500 µM [3]: 48%; Activity [4]: Active; Activity [5]: 7%; Activity [6]: 41%
5 | COc1ccc(/C=C/C(=O)NCC(O)c2ccccc2)cc1 (centres undefined) | > 100 | > 100 | 
6 | O=C(/C=C/c1ccc([N+](=O)[O-])cc1)NCC(O)c1ccccc1 (centres undefined) | > 100 | > 100 | 
7 | COc1cc(/C=C/C(=O)NC[C@@H](O)c2ccc(O)cc2)ccc1O |  |  | IC50 [7]: 44 µg/mL (≈ 134 µM)
8 | COc1ccc(/C=C/C(=O)NCC(O)c2ccc(N)cc2)cc1 (centres undefined) | 93 | > 100 | 
